One experiment concerns CCRF-CEM. Kind of experiment: Cytotoxicity against human CCRF-CEM cells after 72 hrs by MTT assay. The experiment is classed as functional, cell-based.
Experiment [1] relates to Acanthamoeba quina. The experiment in a line: Amoebicidal activity against Acanthamoeba quina clinical isolate AcaVNAK03 assessed as minimum trophocidal concentration after 48 hrs by trypan blue exclusion assay. Format: functional. As to conditions: clinical isolate AcaVNAK03, 48 h.
Experiment [2] deals with MCF7. The experiment in a line: Selectivity index, ratio of IC50 for HUVEC to IC50 for human MCF7 cells.
The next experiment concerns HeLa. The experiment in a line: Cytotoxicity against human HeLa cells after 72 hrs by MTT assay. The experiment is classed as functional, cell-based.
The subject of experiment [3] is Candida albicans. Kind of experiment: microbe, parasite or virus in culture. Format: functional. As to conditions: ATCC 60193, 48 h.
Description: (§1) Antimycotic activity against Candida albicans ATCC 60193 after 48 hrs by NCCLS M-27 microdilution assay
The subject of experiment [4] is MCF7. Kind of experiment: Cytotoxicity against human MCF7 cells after 72 hrs by MTT assay. Format: functional, cell-based. As to conditions: MCF7, 72 h. On the technique in general: Tetrazolium assays rely on reduction of a dye to a coloured formazan, in cell work by metabolically active cells.
Experiment [5] concerns Acanthamoeba lugdunensis. Kind of experiment: Amoebicidal activity against Acanthamoeba lugdunensis clinical isolate AcaVNAK02 assessed as minimum trophocidal concentration after 48 hrs by trypan blue exclusion assay. Format: functional. As to conditions: clinical isolate AcaVNAK02, 48 h.
In another experiment the test system is MDA-MB-231. The experiment in a line: Cytotoxicity against human MDA-MB-231 cells after 72 hrs by MTT assay. The conditions noted are these: MDA-MB-231, 72 h. Format: functional, cell-based.
The subject of a further experiment is HUVEC. The experiment in a line: Cytotoxicity against HUVEC after 72 hrs by MTT assay. Format: ADME, cell-based. The conditions noted are these: Homo sapiens.
Experiment [6] has as its system A549. Kind of experiment: Cytotoxicity against human A549 cells after 72 hrs by MTT assay. Format: functional, cell-based. As to conditions: A549, 72 h.
Experiment [7] deals with A549. The experiment in a line: Selectivity index, ratio of IC50 for HUVEC to IC50 for human A549 cells.
Experiment [8] deals with Candida albicans. The experiment in a line: Ratio of cetylpyridinium bromide MIC to compound MIC for Candida albicans ATCC 60193. Format: functional.
Experiment [9] deals with Candida albicans. The conditions noted are these: ATCC 60193.
Description: as §1
Experiment [10] has as its system Acanthamoeba lugdunensis. The conditions noted are these: clinical isolate AcaVNAK02.
Experiment [11] relates to Acanthamoeba quina. The conditions noted are these: clinical isolate AcaVNAK03.

In brackets after ≈: the same amount, converted by molar mass. Where only a bound is given, the exact number is not on record here.

Consider `CCCCCCCCCCCCCCCCOP(=O)([O-])OCC[n+]1ccccc1`, for which the IC50 was 22.9 µM in the experiment on CCRF-CEM; 52.1 µM in the experiment with HeLa; 8.1 µM in the experiment with MCF7 [4]; 45.8 µM in the experiment on MDA-MB-231; 94 µM in the experiment with HUVEC; 9.9 µM in the experiment on A549 [6]. The MTC with Acanthamoeba quina [1] and with Acanthamoeba lugdunensis [5] was 62.5 µM in each case. Moreover, in the experiment on MCF7 [2], the “Ratio IC50” value is given as over 10. In addition, the MIC in the experiment with Candida albicans [3] is 4 µM (≈ 1.71 µg/mL).
Turning to `CC(C)(C)CC(C)(C)c1ccc(OCCOP(=O)([O-])OCC[N+](C)(C)Cc2ccccc2)cc1`, the IC50 in the experiment with CCRF-CEM, with HeLa, in the experiment with MCF7 [4], in the experiment on MDA-MB-231, with HUVEC and with A549 [6] was over 100 µM each time. Moreover, the MTC with Acanthamoeba quina [1] was found to be 500 µM; with Acanthamoeba lugdunensis [5], 250 µM. The compound further returned an MIC against Candida albicans [3] of over 100 µM.
On to `CCCCCCCCCCCCCCCCOP(=O)([O-])OCC[N+](C)(C)Cc1ccccc1`, for which the IC50 with CCRF-CEM was 13.8 µM; in the experiment on HeLa, 55.7 µM; in the experiment on MCF7 [4], 76 µM; in the experiment with MDA-MB-231, 44.3 µM; in the experiment with HUVEC it was over 100 µM; with A549 [6], 73.2 µM. The MTC with Acanthamoeba quina [1] and in the experiment on Acanthamoeba lugdunensis [5] was over 500 µM throughout. In the experiment with Candida albicans [3], the MIC amounted to 8.1 µM (≈ 3.92 µg/mL).
For the compound `CCCCCCCCCCCCCCCCOP(=O)([O-])OCC[N+](C)(C)C` [MILTEFOSINE], the half-maximal inhibitory concentration (IC50) was 20.7 µM in the experiment with CCRF-CEM; 74.4 µM in the experiment on HeLa; 18.9 µM in the experiment with MCF7 [4]; 34.8 µM in the experiment with MDA-MB-231; over 100 µM in the experiment with HUVEC; 8.6 µM in the experiment with A549 [6]. Besides, the MTC came out at 125 µM with Acanthamoeba quina [1] and 250 µM with Acanthamoeba lugdunensis [5]. In the experiment with A549 [7], the “Ratio IC50” value is given as over 10. This compound returned an MIC in the experiment with Candida albicans [3] of 2.2 µM (≈ 0.897 µg/mL).
Consider `CCCCCCCCCCCCCCCCOP(=O)([O-])OCCC[n+]1ccccc1`, for which the IC50 in the experiment on CCRF-CEM is 34.6 µM; in the experiment on HeLa, 74.7 µM; with MCF7 [4], 50.4 µM; in the experiment with MDA-MB-231, 59.9 µM; in the experiment on HUVEC, over 100 µM; in the experiment with A549 [6], 61.6 µM. In addition, the results for the MTC in the experiment on Acanthamoeba quina [1] and with Acanthamoeba lugdunensis [5] were 15.6 µM and 250 µM, respectively. Also, the MIC against Candida albicans [3] was 2.1 µM (≈ 0.927 µg/mL).
With `CCCCCCCCCCCCCCCC[N+](C)(C)Cc1ccccc1.[Br-]`, the half-inhibitory concentration (IC50) in the experiment on CCRF-CEM is 0.9 µM; in the experiment with HeLa, 2.8 µM; in the experiment with MCF7 [4], 1 µM; in the experiment with MDA-MB-231 it was 3.5 µM; in the experiment with HUVEC, 7.5 µM; in the experiment on A549 [6], 0.63 µM. The MTC in the experiment with Acanthamoeba quina [1] and in the experiment on Acanthamoeba lugdunensis [5] was 15.6 µM in each case. The “Ratio IC50” value in the experiment on A549 [7] is over 10. The compound further returned an MIC against Candida albicans [3] of 4.5 µM. Besides, the Ratio with Candida albicans [8] worked out at 2.
For `CCCCCCCCCCCCCCCCOP(=O)([O-])OCCC[N+](C)(C)C`, the IC50 in the experiment with CCRF-CEM was 6.2 µM; with HeLa, 84.4 µM; in the experiment on MCF7 [4], 45.2 µM; in the experiment with MDA-MB-231, 61.7 µM; in the experiment on HUVEC, over 100 µM; in the experiment on A549 [6] it was 41.5 µM. The figures for the MTC in the experiment on Acanthamoeba quina [1] and in the experiment on Acanthamoeba lugdunensis [5] were 62.5 µM and 125 µM, respectively. The MIC in the experiment on Candida albicans [3] was determined as 18.2 µM (≈ 7.67 µg/mL).
Consider `CCCCCCCCCCCCCCCCOP(=O)([O-])OCCC[N+](C)(C)Cc1ccccc1`, for which the 50% inhibitory concentration (IC50) with CCRF-CEM was 62.2 µM; in the experiment with HeLa, 62.1 µM; in the experiment on MCF7 [4], 57.6 µM; in the experiment with MDA-MB-231 it was 43.7 µM; in the experiment on HUVEC, over 100 µM; with A549 [6], 57.6 µM. The figures for the MTC with Acanthamoeba quina [1] and in the experiment with Acanthamoeba lugdunensis [5] were 250 µM and 125 µM, respectively. The MIC in the experiment on Candida albicans [3] worked out at 7.9 µM (≈ 3.93 µg/mL).
Take `CC(C)(C)CC(C)(C)c1ccc(OCCOP(=O)([O-])OCCC[N+](C)(C)Cc2ccccc2)cc1`: the IC50 with CCRF-CEM, in the experiment on HeLa, with MCF7 [4], in the experiment on MDA-MB-231, with HUVEC and in the experiment with A549 [6] was over 100 µM throughout. For the same compound, the MTC in the experiment on Acanthamoeba quina [1] worked out at 125 µM; with Acanthamoeba lugdunensis [5], 250 µM. This compound also had an MIC against Candida albicans [3] of over 100 µM.
Take Cetyltrimethylammonium bromide: the MIC in the experiment on Candida albicans [9] worked out at 22 µM; in the experiment with Acanthamoeba lugdunensis [10], 15.6 µM; with Acanthamoeba quina [11], 15.6 µM.

For orientation: IC50 means the concentration at which inhibition is half-maximal. Low readings indicate higher potency, high ones lower potency.

(Values after ChEMBL document CHEMBL2413045, “Synthesis, self-aggregation and biological properties of alkylphosphocholine and alkylphosphohomocholine derivatives of cetyltrimethylammonium bromide, cetylpyridinium bromide, benzalkonium bromide (C16) and benzethonium chloride” (Eur J Med Chem, 2013).)
